In patent publication US20250360179A1, “PEPTIDE-IONIC LIQUID CONJUGATE FOR THE PREVENTION AND/OR TREATMENT OF SKIN DISORDERS” (UNIVERSIDADE DO PORTO, priority 2022, published 2025):
Several values for one entry are separate records, joined by “and”; a condition that tells them apart may be missing. Identical values can stand only once. Like-named read-outs stand apart in the source and are kept apart here. Marks after values point to notes of the source that are not given here. Residues, ends and D or L forms follow the SMILES beside them. *: point of attachment. X1 = CCCCCCCCCCCCCCCCn1cc[n+](Cc2cn(CC(=O)*)nn2)c1; X2 = Cn1cc[n+](Cc2cn(CC(=O)*)nn2)c1

Tests used:
Assay type in all cases: cell-based
[1] = tested on: Candida parapsilosis (ATCC 22019); assay: Antifungal MIC (EUCAST) against C. parapsilosis; details: C. parapsilosis ATCC 22019, n = 2
[2] = tested on: Candida glabrata (ATCC 90030); assay: Antifungal MIC (EUCAST) against C. glabrata; details: C. glabrata ATCC 90030, n = 2
[3] = tested on: Candida albicans (ATCC 90028); assay: Antifungal MIC (EUCAST) against C. albicans; details: C. albicans ATCC 90028, n = 2
P. aeruginosa ATCC 27853 = assay: MIC (CLSI) against P. aeruginosa ATCC 27853; details: P. aeruginosa ATCC 27853, n = 3
S. aureus ATCC 29213 = assay: MIC (CLSI) against S. aureus ATCC 29213; details: S. aureus ATCC 29213, n = 3
E. coli ATCC 25922 = assay: MIC (CLSI) against E. coli ATCC 25922; details: E. coli ATCC 25922, n = 3
E. faecalis ATCC 29212 = assay: MIC (CLSI) against E. faecalis ATCC 29212; details: E. faecalis ATCC 29212, n = 3
[4] = tested on: S. epidermidis ATCC 14990; assay: MIC (CLSI) against S. epidermidis ATCC 14990; details: S. epidermidis ATCC 14990, n = 3
S. pyogenes ATCC 19615 = assay: MIC (CLSI) against S. pyogenes ATCC 19615; details: S. pyogenes ATCC 19615, n = 3
[5] = tested on: K. pneumoniae (KP010) MDR clinical isolate; details: MDR isolate KP010, n = 3
[6] = tested on: human dermal fibroblasts (HDF); assay: Collagen production in vitro (Sircol kit); details: 5 μM, versus negative control
Experimental: FIG. 3—Collagen synthesis by Human Dermal Fibroblasts (HDF), in presence of C16-KTTKS-OH (Matrixyl®), KTTK (C16Im)S and C16Im-KTTKS at 5 μM, using the Sircol™ Kit. Data are presented as mean±SEM (3 independent experiments in triplicates) expressed in collagen amount (% of control); *p<0.05, **p<0.01.
The point of conjugating antimicrobial ILs to a collagenesis-inducing peptide was to afford a simple construct able to exert a dual antimicrobial and skin rebuilding action. Therefore, the two best IL-KTTKS conjugates were further tested for their ability to promote collagen production by human dermal fibroblasts (HDF) in vitro. This was assessed using the Sircol® kit assay, whereby the amount of newly formed collagen in the ECM that is deposited in the microwell-plated cell cultures is solubilized in an acidic medium and next quantified through a collagen standard curve according to the Sircol® kit assay procedure (55). Assays were conducted in different conditions for comparison, namely, in the presence of the reference cosmeceutical Matrixyl® (positive control—C16-KTTKS-OH), of the test conjugates KTTK(C16Im)S and C16Im-KTTKS, and in the absence of any peptide (negative control).

[7] = tested on: Gram-negative and Gram-positive bacteria (ATCC reference strains); assay: Antibacterial activity against ATCC reference strains, statements across species; details: Gram-positive species at MIC values
Experimental: The antimicrobial activity of the IL-KTTKS conjugates was assessed in vitro against reference bacterial strains (American Type Culture Collection, ATCC). The minimal inhibitory concentration (MIC) was determined according to the Clinical and Laboratory Standards Institute (CLSI) guidelines (43) against Gram-positive (S. aureus, E. faecalis) and Gram-negative (E. coli, P. aeruginosa) bacteria. […] IL are in agreement with those previously reported (44).

S. aureus (ATCC 29213) = assay: MIC and MBC in MHB and simulated wound fluid (SWF); details: for MBC: S. aureus ATCC 29213 in MHB, n = 3; for antibacterial activity in simulated wound fluid (SWF): S. aureus, SWF compared with MHB
Experimental: The antibacterial activity of C16Im-KTTKS and KTTK(C16Im)S was also assessed in SWF (50) against S. aureus (ATCC 29213), to check if it was preserved in this medium.

[8] = tested on: P. aeruginosa (PA004) MDR clinical isolate; details: MDR isolate PA004, n = 3
[9] = tested on: S. aureus (SA007) MDR clinical isolate; details: for MIC: MDR isolate SA007, n = 3
K. pneumonia ATCC 138830 = assay: MIC (CLSI) against K. pneumoniae ATCC reference strain; details: K. pneumonia ATCC 138830, n = 3

`OC(Cn1cncn1)(Cn1cncn1)c1ccc(F)cc1F` [Fluconazole, reference compound] was tested, and the MIC ([1]; ATCC22019, read-out: MIC) was 2 µg/mL, the MIC ([2]; Nakaseomyces glabratus, ATCC90030, read-out: MIC) was 8 µg/mL and the MIC ([3]; Candida albicans, ATCC90028, read-out: MIC) was 0.5 µg/mL.
`C[C@@H](O)[C@H](NC(=O)[C@@H](NC(=O)[C@@H](N)CCCCn1cc(C[n+]2ccn(C)c2)nn1)[C@@H](C)O)C(=O)N[C@@H](CCCCn1cc(C[n+]2ccn(C)c2)nn1)C(=O)N[C@@H](CO)C(N)=O` [K(MeIm)TTK(MeIm)S] was tested, and the MIC (P. aeruginosa ATCC 27853) was > 1245.5 μM and > 1067.4 μg/mL, the MIC (S. aureus ATCC 29213) was > 1245.5 μM and > 1067.4 μg/mL and the MIC (E. coli ATCC 25922) was greater than 1067.4 µg/mL. The MIC (E. faecalis ATCC 29212) was > 1245.5 μM and > 1067.4 μg/mL.
With `C[C@@H](O)[C@H](NC(=O)[C@@H](NC(=O)[C@@H](N)CCCCn1cc(C[n+]2ccn(C)c2)nn1)[C@@H](C)O)C(=O)N[C@@H](CCCCN)C(=O)N[C@@H](CO)C(N)=O` [K(MeIm)TTKS] the MIC (P. aeruginosa ATCC 27853) was > 1030.1 μM and > 731.2 μg/mL, the MIC (S. aureus ATCC 29213) was > 1030.1 μM and > 731.2 μg/mL and the MIC (E. coli ATCC 25922) was greater than 731.2 µg/mL. For the same compound, the MIC (E. faecalis ATCC 29212) was > 1030.1 μM and > 731.2 μg/mL.
For `CCCCCCCCCCCCCCn1cc[n+](Cc2cn(CCCC[C@H](NC(=O)[C@@H](NC(=O)[C@@H](NC(=O)[C@@H](N)CCCCN)[C@@H](C)O)[C@@H](C)O)C(=O)N[C@@H](CO)C(N)=O)nn2)c1` [KTTK(C14Im)S], the MIC (P. aeruginosa ATCC 27853) was “(52.6)^b μg/mL”, the MIC (S. aureus ATCC 29213) was “(26.3) μg/mL” and the MIC (E. coli ATCC 25922) was “(26.3) μg/mL”. The MIC (E. faecalis ATCC 29212) was “(52.6)^b μg/mL”.
For `CCCCCCCCCCCCCCCCn1cc[n+](Cc2cn(CCCC[C@H](NC(=O)[C@@H](NC(=O)[C@@H](NC(=O)[C@@H](N)CCCCN)[C@@H](C)O)[C@@H](C)O)C(=O)N[C@@H](CO)C(N)=O)nn2)c1` [KTTK(C16Im)S], the MIC (P. aeruginosa ATCC 27853) was “(29.9) μg/mL”, the MIC [1] was “(2.5) μg/mL” and the MIC [4] was “(5.0) μg/mL”. For the same compound, the MIC [2] was “(5.0) μg/mL”, the MIC (S. aureus ATCC 29213) was “(12.9) μg/mL” and the MIC (S. pyogenes ATCC 19615) was “(10.0) μg/mL”. For the same compound, the MIC [5] was 20.0 µg/mL, the “collagen production (collagen amount, % of control)” value [6] was “produce more collagen” and the “bacteriostatic or bactericidal action” value [7] was “bactericidal”. For the same compound, the MBC (S. aureus (ATCC 29213)) was “[64-128] μg/mL”, the “antibacterial activity in simulated wound fluid (SWF)” value (S. aureus (ATCC 29213)) was “slightly decrease” and the MIC (E. coli ATCC 25922) was “(6.45) μg/mL”. The MIC [3] was 5.0 µg/mL, the MIC [8] was 21.7 μM and 20.0 μg/mL and the MIC [9] was 21.7 μM and 20.0 μg/mL. For the same compound, the MIC (E. faecalis ATCC 29212) was “(29.9) μg/mL” and the MIC (K. pneumonia ATCC 138830) was “(49.5) μg/mL”.
With `C[C@@H](O)[C@H](NC(=O)[C@@H](NC(=O)[C@@H](N)CCCCN)[C@@H](C)O)C(=O)N[C@@H](CCCCn1cc(C[n+]2ccn(C)c2)nn1)C(=O)N[C@@H](CO)C(N)=O` [KTTK(MeIm)S] the MIC (P. aeruginosa ATCC 27853) was > 954.2 μM and > 677.3 μg/mL, the MIC (S. aureus ATCC 29213) was > 954.2 μM and > 677.3 μg/mL and the MIC (E. coli ATCC 25922) was greater than 677.3 µg/mL. The MIC (E. faecalis ATCC 29212) was > 954.2 μM and > 677.3 μg/mL.
For `C[C@@H](O)[C@H](NC(=O)[C@H](CCCCN)NC(=O)Cn1cc(C[n+]2ccn(C)c2)nn1)C(=O)N[C@H](C(=O)N[C@@H](CCCCN)C(=O)N[C@@H](CO)C(N)=O)[C@@H](C)O` [MeIm-KTTKS] (X2-KTTKS-NH2; N-terminus and C-terminus assumed), the MIC (P. aeruginosa ATCC 27853) was > 825.9 μM and > 633.4 μg/mL, the MIC (S. aureus ATCC 29213) was > 825.9 μM and > 633.4 μg/mL and the MIC (E. coli ATCC 25922) was greater than 633.4 µg/mL. For the same compound, the MIC (E. faecalis ATCC 29212) was > 825.9 μM and > 633.4 μg/mL.
For `CCCCCCCCCCCCCCCCn1cc[n+](Cc2cn(CC(=O)N[C@@H](CCCCN)C(=O)N[C@H](C(=O)N[C@H](C(=O)N[C@@H](CCCCN)C(=O)N[C@@H](CO)C(N)=O)[C@@H](C)O)[C@@H](C)O)nn2)c1` [Peptide C16Im-KTTKS] (X1-KTTKS-NH2; N-terminus and C-terminus assumed), the MIC (P. aeruginosa ATCC 27853) was “(28.0) μg/mL”, the MIC [1] was “(2.3) μg/mL” and the MIC [4] was “(9.3) μg/mL”. For the same compound, the MIC [2] was “(4.6) μg/mL”, the MIC (S. aureus ATCC 29213) was “(14.0) μg/mL” and the MIC (S. pyogenes ATCC 19615) was “(18.5) μg/mL”. For the same compound, the MIC [5] was “(37.0) μg/mL”, the “collagen production (collagen amount, % of control)” value [6] was “produce more collagen” and the “bacteriostatic or bactericidal action” value [7] was “bactericidal”. The MBC (S. aureus (ATCC 29213)) was “[32-64] μg/mL”, the “antibacterial activity in simulated wound fluid (SWF)” value (S. aureus (ATCC 29213)) was “retain” and the MIC (E. coli ATCC 25922) was “(14.0) μg/mL”. For the same compound, the MIC [3] was 4.6 µg/mL, the MIC [8] was “(18.5) μg/mL” and the “MIC relative to that of ciprofloxacin” value ([9]; MDR isolate SA007) was roughly 10 fold. For the same compound, the MIC [9] was “(18.5)^a μg/mL”, the MIC (E. faecalis ATCC 29212) was “(28.0) μg/mL” and the MIC (K. pneumonia ATCC 138830) was “(26.8) μg/mL”.
`CCCCCCCCCCCCCCCCn1cc[n+](C)c1.[Br-]` [[C16M1Im][Br], reference compound] gave an MIC (P. aeruginosa ATCC 27853) greater than 240 µM, an MIC [1] of 0.93 µM and an MIC [2] of 0.93 µM. The MIC (S. aureus ATCC 29213) was 0.94^d μM, the MIC (E. coli ATCC 25922) was 60 µM and the MIC [3] was 0.93 µM. For the same compound, the MIC (E. faecalis ATCC 29212) was 0.94^c μM and the MIC (K. pneumonia ATCC 138830) was 60 µM.
